Assay results taken from patent publication US10829501B2 (BRISTOL-MYERS SQUIBB COMPANY, priority 2016, dated 2020).
Structures can show the parent of a compound that is named as a salt. Where two headings read alike, the source gives them in different places. Each block holds one compound with its values, some of them ahead of it.

Assays:
[1] = target: ROCK2 (Homo sapiens, UniProt O75116); test: ROCK2 kinase inhibition assay (LABCHIP 3000 Reader, FITC peptide substrate);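 also: rho kinase reaction read by separating phosphorylated from unphosphorylated peptide on chip, with inhibition of kinase activity computed per concentration across a dose-response series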
Chain of ROCK2 (O75116 whole entry, species assumed): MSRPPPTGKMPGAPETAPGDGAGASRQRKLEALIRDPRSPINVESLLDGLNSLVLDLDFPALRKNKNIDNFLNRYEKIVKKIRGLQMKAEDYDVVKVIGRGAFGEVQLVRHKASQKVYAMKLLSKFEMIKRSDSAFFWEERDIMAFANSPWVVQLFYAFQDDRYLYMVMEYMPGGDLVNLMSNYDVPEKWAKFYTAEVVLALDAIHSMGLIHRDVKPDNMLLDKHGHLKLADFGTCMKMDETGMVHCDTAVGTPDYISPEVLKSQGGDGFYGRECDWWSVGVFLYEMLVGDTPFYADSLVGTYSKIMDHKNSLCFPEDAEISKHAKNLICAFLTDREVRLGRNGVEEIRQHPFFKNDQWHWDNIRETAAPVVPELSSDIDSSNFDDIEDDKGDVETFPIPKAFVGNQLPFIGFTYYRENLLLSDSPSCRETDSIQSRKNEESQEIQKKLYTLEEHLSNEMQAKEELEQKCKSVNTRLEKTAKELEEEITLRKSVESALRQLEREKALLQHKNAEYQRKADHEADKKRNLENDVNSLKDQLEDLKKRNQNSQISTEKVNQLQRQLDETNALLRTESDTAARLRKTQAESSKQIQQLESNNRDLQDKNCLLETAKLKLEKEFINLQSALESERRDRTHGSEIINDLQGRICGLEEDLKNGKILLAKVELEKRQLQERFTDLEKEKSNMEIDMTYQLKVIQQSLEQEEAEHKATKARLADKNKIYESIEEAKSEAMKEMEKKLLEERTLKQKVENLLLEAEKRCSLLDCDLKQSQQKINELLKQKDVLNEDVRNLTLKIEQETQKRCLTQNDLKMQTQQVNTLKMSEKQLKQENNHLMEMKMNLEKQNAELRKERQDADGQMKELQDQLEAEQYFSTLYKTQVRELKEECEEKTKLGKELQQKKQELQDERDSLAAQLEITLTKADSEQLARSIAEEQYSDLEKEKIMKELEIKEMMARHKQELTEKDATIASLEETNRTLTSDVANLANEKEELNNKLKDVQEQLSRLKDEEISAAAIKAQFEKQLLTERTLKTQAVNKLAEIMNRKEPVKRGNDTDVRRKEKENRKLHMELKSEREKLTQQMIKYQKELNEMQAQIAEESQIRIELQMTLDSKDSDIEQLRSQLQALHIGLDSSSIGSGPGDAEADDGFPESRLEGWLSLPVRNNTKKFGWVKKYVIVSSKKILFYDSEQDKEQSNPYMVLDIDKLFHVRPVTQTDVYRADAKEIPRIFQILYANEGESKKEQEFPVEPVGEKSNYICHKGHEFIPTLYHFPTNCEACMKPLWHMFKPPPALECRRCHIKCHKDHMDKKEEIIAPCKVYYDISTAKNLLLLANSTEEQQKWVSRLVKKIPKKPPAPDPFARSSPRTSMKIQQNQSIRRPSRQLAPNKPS

[2] = tested on: congestive heart failure in Dahl salt-sensitive rats; conditions: cited from earlier work
[3] = tested on: spontaneously hypertensive rat, renal hypertensive rat and deoxycortisone acetate salt hypertensive rat models; conditions: cited from earlier work
[4] = tested on: neointimal formation; conditions: rats, balloon injury model; cited from earlier work
[5] = tested on: rat stroke model; conditions: cited from earlier work
[6] = tested on: IL-1 beta-induced coronary stenosis; conditions: long term treatment, porcine model; cited from earlier work
[7] = read-out: ROCK2 Activity (ROCK2 IC50), 5 μM ATP, 1.5 μM peptide substrate, pH 7.5

IC50 [1]: 250 to 2500 nM
Compound: [H][C@]1(Oc2ncccc2C(N)=O)C[C@]2(C[C@@H](NC(=O)c3cn4cc(OC)ccc4n3)C2)C1 (stereo partly drawn) [Example 464, N-((aR)-6-((3-carbamoylpyridin-2-yl)oxy)spiro[3.3]heptan-2-yl)-6-methoxyimidazo[1,2-a]pyridine-2-carboxamide, TFA Salt]

Compound: C[C@@H](N)[C@H]1CC[C@H](C(=O)Nc2ccncc2)CC1 [Example Y-27632]
ventricular hypertrophy, fibrosis and function [2]: improve ventricular hypertrophy, fibrosis and function | blood pressure ([3]; control rats): only a minor effect on blood pressure | blood pressure ([3]; three rat models of hypertension): significantly decrease blood pressure | neointimal formation [4]: inhibited neointimal formation

Compound: O=S(=O)(c1cccc2cnccc12)N1CCCNCC1 [fasudil]
infarct size and neurologic deficit [5]: reduce both the infarct size and neurologic deficit | coronary constrictive remodeling [6]: promote a regression of coronary constrictive remodeling | coronary stenosis [6]: progressively reduce coronary stenosis

Compound: N-((aR)-6-((3- carbamoylpyridin-2- yl)oxxy)spiro[3.3] heptan-2-yl)- 5-fluoro-1- (2-hydroxy-2- methylpropyl)- 3a,7a-dihydro- 1H-indazole-3- carboxamide, trifluoroacetate [Example 67]
IC50 [1, 7]: 5 to 50 nM

Compound: N-((aR)-6-((3- carbamoylpyridin-2- yl)oxy))spiro[3.3] heptan-2-yl)- 6-((E)-3,3,3- trifluoroprop-1- en-1-yl) pyrazolo[1,5- a]pyridine-3- carboxamide, trifluoroacetate [Example 116]
IC50 [1, 7]: 5 to 50 nM

Compound: N-((aR)-6-((3- carbamoylpyridin-2- yl)oxy)spiro [3.3]heptan-2-yl)- 6- methoxypyrazolo[1,5- a]pyridine-3- carboxamide, trifluoroacetate [Example 100]
IC50 [1, 7]: 5 to 50 nM

Compound: N-((aR)-6-((3- carbamoylpyridin-2- yl)oxy)spiro[3.3] heptan-2-yl)- 6-(3-hydroxy-3- methylbutoxy) pyrazolo[1,5- a]pyridine-3- carboxamide, trifluoroacetate [Example 123]
IC50 [1, 7]: 5 to 50 nM

Compound: N-((aR)- 6-((3- carbamoyl- pyridin-2- yl)oxy)spiro[3.3] heptan-2-yl)- 1-(2- hydroxy-2- methylpropyl)-1H- pyraolo[3,4-b] pyridine-3- carboxamide, trifluoroacetate [Example 94]
IC50 [1, 7]: 5 to 50 nM

Compound: N-((aR)- 6-((3- carbamoylpyridin- 2- yl)oxy)spiro[3.3] heptan-2-yl)- 2-(3,3-difluoroazetidin- 1-yl)- 4-methylthiazole- 5- carboxamide, trifluoroacetate [Example 90]
IC50 [1, 7]: 50 to 250 nM
